The values that follow come from patent US8012487B2, “Synthetic peptides and DNA sequences for treatment of multiple sclerosis” (priority 2001, dated 2011).

Where no end group is shown, it is not given here.

Experiment [1] relates to EAE induced with MBP, MOG or MBP/MOG combination. The following applies: (PL/J×SJL/J) F1 mice, cited from earlier work.
The subject of experiment [2] is EAE induced by Y-MSPb-reactive line T-cells. The experiment is described as follows: EAE associated with multiple pathogenic autoreactivities induced by transfer of Y-MSPb-reactive line T-cells. Format: in vivo, (C3H.SW×SJL/J)F1 mice. The following applies: in PBS given daily i.p. from the day of T-cell transfer; FIG. 9B. The method, then: Y-MSPb, the purified protein product of the synthetic Y-MSPb gene, disclosed in WO 01-31037, designed to encode tandemly arranged disease-relevant epitopes clusters of the encephalitogenic proteins MBP, PLP, MOG, and MOBP, was tested for its immunomodulatory effect on EAE associated with multiple pathogenic autoreactivities, upon tolerogenic administration, in the same way as described for Y-MSPa in WO 01-31037.
Line T-cells were selected in vitro with Y-MSPb from lymph node cells (LNCs) of (C3H.SW×SJL/J)F1 mice immunized with Y-MSPb (containing encephalitogenic epitopes of MOG, MBP, PLP and MOBP) in CFA, and were analyzed after primary response (left panel) and after four cycles of selection (right panel) for their proliferative response to Y-MSPb, phMOG 34-56, phMOG 1-22, shMOG/E, PLP 139-151, shPLP/E, MBP 87-101 and shMBP/E (10 μ/ml). The proliferative response to purified protein derivative (PPD) (5 μ/ml) was analyzed as a measure of specificity. The line T cells are directed against each of the myelin autoantigens.

For experiment [3], the system named is EAE induced with MOG 37-52. Nature of the experiment: EAE induced with MOG 37-52, treatment with MOG APLs. Format: in vivo. The settings on record: C3H.SW mice; 400 μg in PBS i.v. on days 5, 7, 9 and 12 after encephalitogenic challenge; FIG. 8.
The test system of the next experiment is lymph node cells. Nature of the experiment: Ex vivo response to MOG 37-52 by lymph node cells isolated from treated mice. Format: cell-based. The settings on record: cells from APL-treated C3H.SW mice.
Experiment [4] relates to H-2^b haplotype mice (C3H.SW, C57BL). The experiment is described as follows: Encephalitogenicity of T-cell responses elicited by APLs. The following applies: H-2^b mice; not shown. Format: in vivo. From the text:
(§1) For EAE induced in H-2^b haplotype mice (C3H.SW, C57BL) by MOG 35-55 (SEQ ID NO: 234), we have defined residues 41 and 44 as crucial TCR contact residues for the interaction between the encephalitogenic nonameric core sequence MOG 40-48, found by molecular modelling studies to represent the preferred binding mode for MOG 35-55 to IA^b, and the TCR of H-2^b MOG-specific T-cells. APLs with non-conservative substitutions at either or both of these residues elicited T-cell responses which were not encephalitogenic (not shown). In vitro, these APLs inhibited the proliferation of T-cell clones to MOG 37-52, the minimal optimal stimulatory peptide. […] MOG35-55-specific T-cell line was raised from MOG35-55-immunized C3H.SW mice as described (Mendel et al., 1996). Cytokine assays were performed by ELISA according to PharMingen standard protocols.

For experiment [5], the system named is APL-specific T-cell lines. Nature of the experiment: Cytokine profile of APL-specific T-cell lines (ELISA). Format: cell-based, mice. The settings on record: pilot studies, not shown.
Description: as §1
Background: An ELISA detects its analyte on a solid surface through an enzyme-linked reagent.

A further experiment relates to TCR. The experiment is described as follows: TCR signaling in MOG 37-52-reactive T-cell clones. Format: cell-based, mice. The following applies: peptide alone; not shown. How it is done:
Possible mechanisms by which the relevant APLs may inhibit MOG 37-52-reactive T-cell clones in vitro were tested by analyzing their effect on TCR signaling, as well as on cytokine secretion by the clones.

Experiment [6] concerns chronic EAE induced with whole PLP. The settings on record: SJL/J mice; tolerization; cited from earlier work.

In the case of “MBPAc1-11: immunodominant encephalitogenic epitope within MBP (Ac-MGNHSGKRELS; UniProt P04370 1-11, looked up, fragment)”, in experiment [1], the “MBP-induced EAE” value is recorded as “suppresses” and the “MOG-induced EAE” value was “no effect”. Also, the “clinical severity of EAE induced with a combination of MBP and MOG” value in experiment [1] (tolerogenic administration) was “marginal therapeutic effect”.
For “MOG 37-52: native MOG peptide, the minimal optimal stimulatory peptide (VGWYRPPFSRVVHLYR; Synthetic peptide containing sequence 37-52 of MOG.)”, the “EAE induced by Y-MSPb-reactive line T-cells: disease incidence or severity” value in experiment [2] is reported as “no significant effect”.
As to “MOG 37-A44-52: APL of MOG 37-52 wherein F44 is substituted by A44 (VGWYRPPASRVVHLYR; The peptide of SEQ ID NO231 in which the residue at position 8 was replaced by Ala.)”, in experiment [3], the “severity and incidence of EAE induced with the native MOG 37-52” value is reported as “marked decrease”. Further, the “response ex vivo to MOG 37-52 by lymph node cells isolated from treated mice” value in the experiment on lymph node cells is “markedly reduced response”. The “encephalitogenicity of the APL / of the T-cell responses it elicits” value in experiment [4] is “non-encephalitogenicity”. The “cytokine profile of APL-specific T-cell lines” value in experiment [5] is listed as “elicits Th2 T-cells”. In addition, in the experiment on TCR, the “TCR signaling in the T-cell clones” value is “induces partial TCR signaling”.
In the case of “MOG 37-Q41-52: MOG 37-52 altered peptide ligand substituted at TCR contact residue 41 (VGWYQPPFSRVVHLYR; The peptide of SEQ ID NO231 in which the residue at position 5 was replaced by Gln.)”, the “severity and incidence of EAE induced with the native MOG 37-52” value in experiment [3] is “marked decrease”. The “response ex vivo to MOG 37-52 by lymph node cells isolated from treated mice” value in the experiment with lymph node cells is recorded as “markedly reduced response”.
On to “PLP139-151: major encephalitogenic peptide of PLP (CHCLGKWLGHPDK; UniProt P60202 139-151, looked up, fragment)”, for which, in experiment [2], the “EAE induced by Y-MSPb-reactive line T-cells: disease incidence or severity” value was “no significant effect”. Further, the “chronic EAE induced with whole PLP: acute phase and relapses” value in experiment [6] was “abrogated the primary acute phase, but not subsequent relapses”.
